This is an account of results in patent US11446287B2, “Compounds and methods for EP300 or CBP modulation and indications therefor” (Opna Immuno-Oncology SA, priority 2019, dated 2022).

SMILES strings stand for the structures.

Usually IC50 stands for the point on the concentration scale where inhibition reaches its midpoint.

The target of this experiment is T1, Recombinant human CBP containing the bromodomain (CBP-BD (1043-1159)) (Homo sapiens, UniProt Q92793).
T1 construct: Recombinant human CBP bromodomain (CBP-BD (1043-1159)); made in house; host or cells: E. coli BL21-CodonPlus (DE3), modified pET vector
Nature of the experiment: CBP Alphascreen binding assay. Particulars: read-out: CREBBP (CBP) IC50. Summed up: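 Buffer: 50 mM HEPES pH 7.5, 50 mM NaCl, 0.01% BSA, 0.01% Triton X-100, 2 mM DTT. The signal was normalised to plate controls and fitted with a four-parameter curve to give IC50.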
For orientation: In Alpha technology, singlet oxygen from a donor bead excites a nearby acceptor bead.

T1 sequence (Q92793 1081-1197): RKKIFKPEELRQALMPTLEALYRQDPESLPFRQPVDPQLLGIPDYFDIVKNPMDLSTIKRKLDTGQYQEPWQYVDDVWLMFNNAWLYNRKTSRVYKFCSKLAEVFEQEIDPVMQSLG

As to `Cc1noc(C)c1-c1cnc2c(c1)c(-c1ccc(C(=O)O)cc1Cl)cn2C(c1ccccn1)C1CCCC1` (stereo not shown) [P-0027, 3-chloro-4-(1-(cyclopentyl(pyridin-2-yl)methyl)-5-(3,5-dimethylisoxazol-4-yl)-1H-pyrrolo[2,3-b]pyridin-3-yl)benzoic acid], the IC50 fell in the range of 0.0001 to 1 µM.
For `Cc1cc(-c2cn(C(c3ccccn3)C3CCCC3)c3ncc(-c4c(C)noc4C)cc23)ccc1C(=O)O` (stereo not shown) [P-0028, 4-(1-(cyclopentyl(pyridin-2-yl)methyl)-5-(3,5-dimethylisoxazol-4-yl)-1H-pyrrolo[2,3-b]pyridin-3-yl)-2-methylbenzoic acid], the IC50 fell in the range of 0.0001 to 1 µM.
As to `Cc1noc(C)c1-c1cnc2c(c1)c(-c1ccc(C(=O)O)c(C(F)(F)F)c1)cn2C(c1ccccn1)C1CCCC1` (stereo not shown) [P-0029, 4-(1-(cyclopentyl(pyridin-2-yl)methyl)-5-(3,5-dimethylisoxazol-4-yl)-1H-pyrrolo[2,3-b]pyridin-3-yl)-2-(trifluoromethyl)benzoic acid], the IC50 was 0.0001 to 1 µM.
Turning to `Cc1noc(C)c1-c1cnc2c(c1)c(-c1ccc(C(=O)O)c(O)c1)cn2C(c1ccccn1)C1CCCC1` (stereo not shown) [P-0030, 4-(1-(cyclopentyl(pyridin-2-yl)methyl)-5-(3,5-dimethylisoxazol-4-yl)-1H-pyrrolo[2,3-b]pyridin-3-yl)-2-hydroxybenzoic acid], the concentration for half-maximal inhibition (IC50) fell in the range of 1 to 8 µM.
With `Cc1noc(C)c1-c1cnc2c(c1)c(-c1ccc(CC(=O)O)cc1)cn2C(c1ccccn1)C1CCCC1` (stereo not shown) [P-0031, 2-(4-(1-(cyclopentyl(pyridin-2-yl)methyl)-5-(3,5-dimethylisoxazol-4-yl)-1H-pyrrolo[2,3-b]pyridin-3-yl)phenyl)acetic acid] the figure was 0.0001 to 1 µM; with `Cc1noc(C)c1-c1cnc2c(c1)c(-c1ccc(C(C)(C)C(=O)O)cc1)cn2C(c1ccccn1)C1CCCC1` (stereo not shown) [P-0032, 2-(4-(1-(cyclopentyl(pyridin-2-yl)methyl)-5-(3,5-dimethylisoxazol-4-yl)-1H-pyrrolo[2,3-b]pyridin-3-yl)phenyl)-2-methylpropanoic acid], 0.0001 to 1 µM; with `Cc1noc(C)c1-c1cnc2c(c1)c(-c1ccc(C3(C(=O)O)CC3)cc1)cn2C(c1ccccn1)C1CCCC1` (stereo not shown) [P-0033, 1-(4-(1-(cyclopentyl(pyridin-2-yl)methyl)-5-(3,5-dimethylisoxazol-4-yl)-1H-pyrrolo[2,3-b]pyridin-3-yl)phenyl)cyclopropane-1-carboxylic acid], 0.0001 to 1 µM.
With `Cc1noc(C)c1-c1cnc2c(c1)c(-c1ccc(C(F)(F)C(=O)O)cc1)cn2C(c1ccccn1)C1CCCC1` (stereo not shown) [P-0034, 2-(4-(1-(cyclopentyl(pyridin-2-yl)methyl)-5-(3,5-dimethylisoxazol-4-yl)-1H-pyrrolo[2,3-b]pyridin-3-yl)phenyl)-2,2-difluoroacetic acid] the figure was 0.0001 to 1 µM; with `COc1ncccc1-n1cc(-c2ccc(C(=O)O)cc2OC(F)(F)F)c2cc(-c3c(C)noc3C)cnc21` [P-0316, 4-(5-(3,5-dimethylisoxazol-4-yl)-1-(2-methoxypyridin-3-yl)-1H-pyrrolo[2,3-b]pyridin-3-yl)-3-(trifluoromethoxy)benzoic acid], 0.0001 to 1 µM; with `Cc1ncccc1-n1cc(-c2ccc(C(=O)O)cc2OC(F)(F)F)c2cc(-c3c(C)noc3C)cnc21` [P-0317, 4-(5-(3,5-dimethylisoxazol-4-yl)-1-(2-methylpyridin-3-yl)-1H-pyrrolo[2,3-b]pyridin-3-yl)-3-(trifluoromethoxy)benzoic acid], 0.0001 to 1 µM.
As for `Cc1noc(C)c1-c1cnc2c(c1)c(-c1ccc(C(=O)O)cc1OC(F)(F)F)cn2-c1cnn(C)c1` [P-0318, 4-(5-(3,5-dimethylisoxazol-4-yl)-1-(1-methyl-1H-pyrazol-4-yl)-1H-pyrrolo[2,3-b]pyridin-3-yl)-3-(trifluoromethoxy)benzoic acid], the IC50 is 0.0001 to 1 µM.
As for `Cc1noc(C)c1-c1cnc2c(c1)c(-c1ccc(C(=O)O)cc1OC(F)(F)F)cn2-c1cncnc1` [P-0319, 4-(5-(3,5-dimethylisoxazol-4-yl)-1-(pyrimidin-5-yl)-1H-pyrrolo[2,3-b]pyridin-3-yl)-3-(trifluoromethoxy)benzoic acid], the IC50 was 0.0001 to 1 µM.
Regarding `Cc1noc(C)c1-c1cnc2c(c1)c(-c1ccc(C(=O)O)cc1OC(F)(F)F)cn2-c1cnc(N)nc1` [P-0320, 4-(1-(2-aminopyrimidin-5-yl)-5-(3,5-dimethylisoxazol-4-yl)-1H-pyrrolo[2,3-b]pyridin-3-yl)-3-(trifluoromethoxy)benzoic acid], the IC50 was 0.0001 to 1 µM.
With `Cc1noc(C)c1-c1cnc2c(c1)c(-c1ccc(C(=O)O)cc1OC(F)(F)F)cn2-c1cnc(N(C)C)nc1` [P-0321] the figure was 0.0001 to 1 µM; with `Cc1noc(C)c1-c1cnc2c(c1)c(-c1ccc(C(=O)O)cc1OC(F)(F)F)cn2-c1ccc(C(=O)O)cc1` [P-0322, 4-(1-(4-carboxyphenyl)-5-(3,5-dimethylisoxazol-4-yl)-1H-pyrrolo[2,3-b]pyridin-3-yl)-3-(trifluoromethoxy)benzoic acid], 0.0001 to 1 µM; with `Cc1noc(C)c1-c1cnc2c(c1)c(-c1ccc(C(=O)O)cc1OC(F)(F)F)cn2-c1ccc(C(N)=O)cc1` [P-0323, 4-(1-(4-carbamoylphenyl)-5-(3,5-dimethylisoxazol-4-yl)-1H-pyrrolo[2,3-b]pyridin-3-yl)-3-(trifluoromethoxy)benzoic acid], 0.0001 to 1 µM.
For `COc1cc(C(=O)O)ncc1-c1cn(-c2ccncc2Cl)c2ncc(-c3c(C)noc3C)cc12` [P-0324, 5-(1-(3-chloropyridin-4-yl)-5-(3,5-dimethylisoxazol-4-yl)-1H-pyrrolo[2,3-b]pyridin-3-yl)-4-methoxypicolinic acid], the IC50 lay within 0.0001 to 1 µM.
In the case of `Cc1noc(C)c1-c1cnc2c(c1)c(-c1ccc(C(=O)O)cc1OCC(F)F)cn2[C@H]1CCOC1` [P-0325, (S)-3-(2,2-difluoroethoxy)-4-(5-(3,5-dimethylisoxazol-4-yl)-1-(tetrahydrofuran-3-yl)-1H-pyrrolo[2,3-b]pyridin-3-yl)benzoic acid] it was 0.0001 to 1 µM; in that of `CCn1cc(-n2cc(-c3ccc(C(=O)O)cc3OCC(F)F)c3cc(-c4c(C)noc4C)cnc32)c(C)n1` [P-0326, 3-(2,2-difluoroethoxy)-4-(5-(3,5-dimethylisoxazol-4-yl)-1-(1-ethyl-3-methyl-1H-pyrazol-4-yl)-1H-pyrrolo[2,3-b]pyridin-3-yl)benzoic acid], 0.0001 to 1 µM; in that of `Cc1noc(C)c1-c1cnc2c(c1)c(-c1c(F)cc(C(=O)O)cc1OCC(F)F)cn2-c1ccccc1` [P-0327, 3-(2,2-difluoroethoxy)-4-(5-(3,5-dimethylisoxazol-4-yl)-1-phenyl-1H-pyrrolo[2,3-b]pyridin-3-yl)-5-fluorobenzoic acid], 0.0001 to 1 µM.
Consider `Cc1noc(C)c1-c1cnc2c(c1)c(-c1ccc(C(=O)O)cc1OCC(F)F)cn2-c1cnc(N2CCC2)nc1` [P-0328, 4-(1-(2-(azetidin-1-yl)pyrimidin-5-yl)-5-(3,5-dimethylisoxazol-4-yl)-1H-pyrrolo[2,3-b]pyridin-3-yl)-3-(2,2-difluoroethoxy)benzoic acid], for which the IC50 was in the range of 0.0001 to 1 µM.
Consider `CCOc1cc(C(=O)O)nc(OCC)c1-c1cn(-c2ccc(F)cc2F)c2ncc(-c3c(C)noc3C)cc12` [P-0329, 5-(1-(2,4-difluorophenyl)-5-(3,5-dimethylisoxazol-4-yl)-1H-pyrrolo[2,3-b]pyridin-3-yl)-4,6-diethoxypicolinic acid], for which the IC50 lay within 0.0001 to 1 µM.
